The values that follow come from publication PMC7238052, “Novel and Modified Neutrophil Elastase Inhibitor Loaded in Topical Formulations for Psoriasis Management” (Pharmaceutics, 2020).

One test has as its target T1, urokinase (Homo sapiens, UniProt P00749).
T1 construct: gene PLAU; isolated enzyme; source not clearly stated
In words: fluorometric protease assay, Z-Gly-Gly-Arg-AMC. The format is biochemical. To be noted: read-out: IC50 ± SD (μM) / Urokinase. The source says: fluorometric protease assay, Z-Gly-Gly-Arg-AMC on urokinase

Another test deals with T2, chymotrypsin.
T2 construct: gene CTRB1; enzyme from human pancreas
In words: fluorometric protease assay, Suc-Ala-Ala-Pro-Phe-AMC. The format is biochemical, Homo sapiens. To be noted: […] Tris-HCl, […] NaCl pH […] °C; read-out: IC50 ± SD (μM) / Chymotrypsin. An excerpt:
fluorometric protease assay, Suc-Ala-Ala-Pro-Phe-AMC on chymotrypsin

Test [1] deals with T3, Human neutrophil elastase (HNE) (Homo sapiens, UniProt P08246).
T3 construct: gene ELANE; isolated enzyme, single polypeptide chain
T3 sequence (P08246 30-247): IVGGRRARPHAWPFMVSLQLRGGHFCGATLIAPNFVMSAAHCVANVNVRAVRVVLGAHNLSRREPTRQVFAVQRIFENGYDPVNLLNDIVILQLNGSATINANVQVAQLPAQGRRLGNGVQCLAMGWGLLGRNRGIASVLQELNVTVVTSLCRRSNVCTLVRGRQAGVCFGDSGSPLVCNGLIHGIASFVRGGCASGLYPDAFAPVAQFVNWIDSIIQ
Put plainly: fluorometric protease assay, MeO-Suc-Ala-Ala-Pro-Val-AMC. The format is biochemical. The source says: fluorometric protease assay, MeO-Suc-Ala-Ala-Pro-Val-AMC on Human neutrophil elastase (HNE)

Another test concerns T4, trypsin.
T4 construct: gene PRSS1; enzyme from human pancreas
Put plainly: fluorometric protease assay, Z-Gly-Gly-Arg-AMC. The format is biochemical, Homo sapiens. To be noted: […] Tris-HCl, […] NaCl pH […] °C; read-out: IC50 ± SD (μM) / Trypsin. The source says: fluorometric protease assay, Z-Gly-Gly-Arg-AMC on trypsin

A further test deals with T5, kallikrein.
T5 construct: gene KLKB1
In words: fluorometric protease assay, H-Pro-Phe-Arg-AMC. The format is biochemical, Homo sapiens. To be noted: […] Tris-HCl, […] NaCl pH […] °C; read-out: IC50 ± SD (μM) / Kallikrein. The source says:
fluorometric protease assay, H-Pro-Phe-Arg-AMC on kallikrein

Where two headings read alike, the source gives them in different places.

For `CCC1(CC)C(=O)N(c2ccc(COc3ccc4ccc(=O)oc4c3)cc2)C1=O` [compound 1, 3,3-diethyl-1-(4-(((2-oxo-2H-chromen-7-yl)oxy)methyl)phenyl)-azetidine-2,4-dione], the IC50 on urokinase is greater than 50 µM; in the test with chymotrypsin, greater than 8 µM; in test [1] (read-out: IC50 ± SD), 0.42 ± 0.09 nM; in the test on trypsin it was greater than 1 µM.
For the compound `CCC1(CC)C(=O)N(c2ccc(CBr)cc2)C1=O` [compound 6], in test [1] (read-out: IC50 ± SD), the IC50 was 0.64 ± 0.03 nM.
In the case of `CCC1(CC)C(=O)N(c2ccc(C(=O)OCc3ccccc3)cc2)C1=O` [compound 8], in test [1] (read-out: IC50 ± SD), the IC50 came to 0.96 ± 0.13 nM.
Consider `CCC1(CC)C(=O)N(c2ccc(C(=O)O)cc2)C1=O` [compound 9], for which the IC50 in test [1] (read-out: IC50 ± SD) amounted to 14.7 ± 5.55 nM.
As to `CCC1(CC)C(=O)N(c2ccc(CSc3nc4cc(C(=O)NCCCNc5ccc([N+](=O)[O-])c6nonc56)ccc4o3)cc2)C1=O` [compound 16, 2-((4-(3,3-diethyl-2,4-dioxoazetidin-1-yl)benzyl)thio)-N-(3-((7nitrobenzo[c][1,2,5]oxadiazol-4-yl)amino)propyl)benzo[d]oxazole-5-carboxamide], the IC50 at urokinase is greater than 2 µM; in test [1] (read-out: IC50 ± SD (nM) / HNE) it was 0.85 ± 0.1 nM; in the test on kallikrein it was greater than 5 µM; with trypsin, greater than 1 µM.
`CCC1(CC)C(=O)N(c2ccc(C(=O)NCCCNc3ccc([N+](=O)[O-])c4nonc34)cc2)C1=O` [compound 17]: the IC50 on urokinase was greater than 2 µM; in the test on chymotrypsin, greater than 0.5 µM; in test [1] (read-out: IC50 ± SD (nM) / HNE), 0.64 ± 0.03 nM; in the test with kallikrein it was greater than 3 µM; with trypsin, greater than 1 µM.
